Reference: ChEMBL document CHEMBL1131452 (J Med Chem, 1998)

Legend:
[1] = molecular target: 3',5'-cyclic-AMP phosphodiesterase 4D (Homo sapiens, UniProt Q08499); experiment: In vitro inhibitory activity on unpurified recombinant Phosphodiesterase 4D
[2] = molecular target: 3',5'-cyclic-AMP phosphodiesterase 4C (Homo sapiens, UniProt Q08493); experiment: Evaluated in vitro for its inhibitory activity on unpurified recombinant Phosphodiesterase 4C
Homo sapiens [3] = organism: Homo sapiens; experiment: Evaluated in vitro for its inhibitory activity on LPS-induced TNF-Alpha release in human whole blood.; format: functional, organism-based
[4] = molecular target: 3',5'-cyclic-AMP phosphodiesterase 4B (Homo sapiens, UniProt Q07343); experiment: Inhibition of recombinant human Phosphodiesterase 4B
3',5'-cyclic-AMP phosphodiesterase 4B, sequence (Q07343 whole entry): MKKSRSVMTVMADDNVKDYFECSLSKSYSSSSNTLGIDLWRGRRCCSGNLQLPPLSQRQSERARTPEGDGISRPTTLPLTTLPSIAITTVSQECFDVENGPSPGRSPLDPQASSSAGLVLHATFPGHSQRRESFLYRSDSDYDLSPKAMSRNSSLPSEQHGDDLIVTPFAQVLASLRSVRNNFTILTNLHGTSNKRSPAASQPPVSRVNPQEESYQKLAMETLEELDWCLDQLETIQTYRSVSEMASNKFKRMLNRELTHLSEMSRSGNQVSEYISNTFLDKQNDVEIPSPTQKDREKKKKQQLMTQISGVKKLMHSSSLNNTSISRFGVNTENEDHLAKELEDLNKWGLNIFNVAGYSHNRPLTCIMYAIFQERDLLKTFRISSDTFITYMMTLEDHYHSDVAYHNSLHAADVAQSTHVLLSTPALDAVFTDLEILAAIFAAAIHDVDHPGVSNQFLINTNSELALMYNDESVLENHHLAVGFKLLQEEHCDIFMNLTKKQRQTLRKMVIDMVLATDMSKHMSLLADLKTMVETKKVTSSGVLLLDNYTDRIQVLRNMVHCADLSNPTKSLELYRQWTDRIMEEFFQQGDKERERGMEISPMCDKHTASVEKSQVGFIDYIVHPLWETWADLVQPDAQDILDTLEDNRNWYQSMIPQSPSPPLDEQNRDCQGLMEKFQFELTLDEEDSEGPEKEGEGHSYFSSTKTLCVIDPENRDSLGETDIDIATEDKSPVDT

[5] = molecular target: 3',5'-cyclic-AMP phosphodiesterase 4A (Homo sapiens, UniProt P27815); experiment: Evaluated in vitro for its inhibitory activity on unpurified recombinant Phosphodiesterase type 4A (PDE4A).
3',5'-cyclic-AMP phosphodiesterase 4A, sequence (P27815 whole entry): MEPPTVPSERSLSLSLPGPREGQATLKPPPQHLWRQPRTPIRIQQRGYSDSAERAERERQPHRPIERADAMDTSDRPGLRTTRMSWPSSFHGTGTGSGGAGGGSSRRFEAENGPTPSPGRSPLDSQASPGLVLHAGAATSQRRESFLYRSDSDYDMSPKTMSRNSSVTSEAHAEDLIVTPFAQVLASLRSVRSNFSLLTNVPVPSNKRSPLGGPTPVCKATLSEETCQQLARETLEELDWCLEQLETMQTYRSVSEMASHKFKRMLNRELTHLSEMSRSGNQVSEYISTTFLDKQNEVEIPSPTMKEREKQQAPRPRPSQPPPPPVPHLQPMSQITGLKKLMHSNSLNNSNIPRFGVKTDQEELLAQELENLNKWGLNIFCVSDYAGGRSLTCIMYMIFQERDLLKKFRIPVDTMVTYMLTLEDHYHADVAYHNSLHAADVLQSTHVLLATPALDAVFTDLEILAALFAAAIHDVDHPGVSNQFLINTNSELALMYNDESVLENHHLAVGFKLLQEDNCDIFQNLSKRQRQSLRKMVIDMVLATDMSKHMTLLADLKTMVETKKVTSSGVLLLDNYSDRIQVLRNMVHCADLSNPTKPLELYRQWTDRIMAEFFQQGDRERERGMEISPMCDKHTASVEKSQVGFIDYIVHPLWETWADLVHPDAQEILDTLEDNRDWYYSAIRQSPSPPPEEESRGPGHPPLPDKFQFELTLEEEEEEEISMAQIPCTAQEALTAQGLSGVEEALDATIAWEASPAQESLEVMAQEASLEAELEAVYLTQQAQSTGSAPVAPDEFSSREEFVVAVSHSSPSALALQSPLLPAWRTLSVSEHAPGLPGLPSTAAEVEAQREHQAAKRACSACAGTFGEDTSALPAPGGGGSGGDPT

Phosphodiesterase 4 = Phosphodiesterase 4 (Homo sapiens, UniProt P27815+Q08499+Q07343+Q08493); experiment: Evaluated in vitro for its inhibitory activity on human monocyte cytosol Phosphodiesterase type 4 (PDE4).; format: protein assay
Homo sapiens [6] = organism: Homo sapiens; experiment: Evaluated in vitro for its inhibitory activity on LPS-induced TNF-Alpha release in human monocyte.; format: functional

3',5'-cyclic-AMP phosphodiesterase 4D, sequence (Q08499 whole entry): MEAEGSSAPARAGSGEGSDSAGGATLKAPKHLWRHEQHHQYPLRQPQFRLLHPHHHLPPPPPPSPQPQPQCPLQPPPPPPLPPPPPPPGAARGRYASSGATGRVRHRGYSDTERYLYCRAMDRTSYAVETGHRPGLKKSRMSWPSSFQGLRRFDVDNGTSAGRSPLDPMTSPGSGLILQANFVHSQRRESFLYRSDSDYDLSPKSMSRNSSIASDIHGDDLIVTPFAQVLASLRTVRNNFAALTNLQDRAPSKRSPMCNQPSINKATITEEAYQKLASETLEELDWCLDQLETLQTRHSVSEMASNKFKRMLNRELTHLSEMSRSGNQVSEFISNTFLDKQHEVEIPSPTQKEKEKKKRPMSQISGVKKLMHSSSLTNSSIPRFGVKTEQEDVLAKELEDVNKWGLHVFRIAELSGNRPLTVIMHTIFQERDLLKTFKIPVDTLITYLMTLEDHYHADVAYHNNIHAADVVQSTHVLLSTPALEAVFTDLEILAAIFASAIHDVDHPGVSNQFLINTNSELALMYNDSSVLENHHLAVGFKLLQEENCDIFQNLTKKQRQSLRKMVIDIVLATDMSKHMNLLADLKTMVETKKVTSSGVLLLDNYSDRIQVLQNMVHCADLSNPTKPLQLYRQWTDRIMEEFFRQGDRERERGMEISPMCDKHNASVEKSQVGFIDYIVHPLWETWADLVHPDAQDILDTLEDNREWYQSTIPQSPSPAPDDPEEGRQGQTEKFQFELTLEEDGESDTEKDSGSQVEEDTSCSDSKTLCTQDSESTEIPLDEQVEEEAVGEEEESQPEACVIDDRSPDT
3',5'-cyclic-AMP phosphodiesterase 4C, sequence (Q08493 whole entry): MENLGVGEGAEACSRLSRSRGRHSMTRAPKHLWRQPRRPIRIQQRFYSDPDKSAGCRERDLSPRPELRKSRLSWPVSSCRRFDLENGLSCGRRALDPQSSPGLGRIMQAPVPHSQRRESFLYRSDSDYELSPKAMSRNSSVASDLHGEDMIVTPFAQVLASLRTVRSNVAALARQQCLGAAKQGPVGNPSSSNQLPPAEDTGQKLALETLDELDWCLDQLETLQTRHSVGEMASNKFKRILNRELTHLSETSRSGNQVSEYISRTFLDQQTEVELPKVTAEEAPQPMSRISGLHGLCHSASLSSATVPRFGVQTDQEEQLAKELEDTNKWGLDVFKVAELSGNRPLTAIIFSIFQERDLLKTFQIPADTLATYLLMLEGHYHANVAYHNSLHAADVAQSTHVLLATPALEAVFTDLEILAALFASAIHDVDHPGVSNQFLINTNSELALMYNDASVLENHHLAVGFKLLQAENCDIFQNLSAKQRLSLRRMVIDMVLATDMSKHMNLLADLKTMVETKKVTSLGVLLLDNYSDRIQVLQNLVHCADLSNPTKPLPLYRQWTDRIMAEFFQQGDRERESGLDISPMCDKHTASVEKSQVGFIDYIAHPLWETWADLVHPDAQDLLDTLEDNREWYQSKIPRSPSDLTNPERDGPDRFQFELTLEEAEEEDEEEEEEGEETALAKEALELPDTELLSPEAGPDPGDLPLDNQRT

| IC50 [1] [nM] | IC50 [2] [nM] | IC50 (Homo sapiens [3]) [nM] | IC50 [4] [nM] | IC50 [5] [nM] | IC50 (Phosphodiesterase 4) [nM] | IC50 (Homo sapiens [6]) [nM] | Structure (SMILES) |
| --- | --- | --- | --- | --- | --- | --- | --- |
| 20.2 | 126 | 50 | 22.2 | 50.7 | – | – | COc1ccc(C(=O)NC(C)C(=O)NO)cc1OC1CCCC1 (configuration not stated) |
| 15.6 | 15.3 | 66 | 17.9 | 27.2 | 249 | 32 | COc1ccc(C(=O)NCC(=O)NO)cc1OC1CCCC1 |
| – | – | – | – | – | 221 | 138 | COc1ccc(C2=NOC(CC(=O)NO)C2)cc1OC1CCCC1 (configuration not stated) |
| 10 | 95.2 | 74 | 10.9 | 9.8 | – | – | COc1ccc(C2=NOC(C)(C(=O)NO)C2)cc1OC1CCCC1 (configuration not stated) |
| – | – | – | – | – | 2540 | 35100 | COc1ccc(C2=NOC(C(=O)O)C2)cc1OC1CCCC1 (configuration not stated) |
| – | – | – | – | – | 3930 | 4240 | COc1ccc(C2=NOC(C(N)=O)C2)cc1OC1CCCC1 (configuration not stated) |
| – | – | – | – | – | 1650 | 848 | COc1ccc(-c2cc(C(=O)NO)on2)cc1OC1CCCC1 |
| 2.7 | 18 | 30 | 2.1 | 2.2 | – | – | COc1ccc(C2=NOC(C(=O)NO)C2)cc1OC1CCCC1 (configuration not stated) |
| – | – | – | – | – | 567 | 1020 | CCCC1(C(=O)NO)CC(c2ccc(OC)c(OC3CCCC3)c2)=NO1 (configuration not stated) |
| – | – | – | – | – | 1760 | > 50000 | COc1ccc(C(=O)NCC(=O)O)cc1OC1CCCC1 |
| – | – | – | – | – | 178 | 230 | CCC1(C(=O)NO)CC(c2ccc(OC)c(OC3CCCC3)c2)=NO1 (configuration not stated) |
| – | – | – | – | – | 3960 | 10200 | COc1ccc(C2=NOC(C(=O)N(C)O)C2)cc1OC1CCCC1 (configuration not stated) |
| – | – | 660 | – | – | – | 379 | COc1ccc(C2CNC(=O)C2)cc1OC1CCCC1 (configuration not stated) [ROLIPRAM] |

| Structure (SMILES) | IC50 [1] [nM] | IC50 [2] [nM] | IC50 (Homo sapiens [3]) [nM] | IC50 [4] [nM] | IC50 [5] [nM] | IC50 (Phosphodiesterase 4) [nM] | IC50 (Homo sapiens [6]) [nM] |
| --- | --- | --- | --- | --- | --- | --- | --- |
| COc1ccc(C(=O)Nc2c(Cl)cncc2Cl)cc1OC1CCCC1 | – | – | 80 | – | – | – | 2 |
